Test [1] relates to Aorta. Description: Vasorelaxant activity in endothelium-intact thoracic aortic rings of albino adult male Wistar rat assessed as reduction in epinephrine-induced contracture at 0.05 to 0.2 mg/ml relative to control. Type of test: functional. The following applies: dose 0.05-0.2 mg/ml.
Test [2] relates to Aorta. Description: Vasorelaxant activity in endothelium-intact thoracic aortic rings of albino adult male Wistar rat assessed as reduction in epinephrine-induced contracture. Type of test: functional, tissue-based.

The term Emax denotes the size of the effect at its maximum, as opposed to the concentration needed. By EC50 is commonly meant the concentration that produces a half-maximal response.

Turning to `O=C(Cn1cc(COC(Cn2cnc3ccccc3c2=O)c2ccccc2)nn1)Nc1ccc(Cl)cc1` (centres undefined), in test [1], the Emax amounted to 95.1%. In addition, in test [2], the EC50 was 198 µM.

For `O=C(Cn1cc(COC(Cn2cnc3ccccc3c2=O)c2ccccc2)nn1)Nc1ccc(F)cc1` (centres undefined), in test [1], the Emax turned out to be 48.2%. Besides, in test [2], the EC50 was 345 µM.

For `Cc1ccccc1NC(=O)Cn1cc(COC(Cn2cnc3ccccc3c2=O)c2ccccc2)nn1` (centres undefined), the Emax in test [1] was found to be 93.5%. Also, the EC50 in test [2] was found to be 246 µM.

On to `COc1ccc(NC(=O)Cn2cc(COC(Cn3cnc4ccccc4c3=O)c3ccccc3)nn2)cc1` (centres undefined), for which the Emax in test [1] was found to be 50.9%. Moreover, the 50% effective concentration (EC50) in test [2] turned out to be 387 µM.

With `Cc1ccc(NC(=O)Cn2cc(COC(Cn3cnc4ccccc4c3=O)c3ccccc3)nn2)cc1` (centres undefined), the Emax in test [1] came to 16.4%. Further, the EC50 in test [2] was determined as 1040 µM.

For the compound `O=C(Cn1cc(COC(Cn2cnc3ccccc3c2=O)c2ccccc2)nn1)Nc1ccccc1` (centres undefined), in test [1], the maximum response (Emax) was found to be 35%. Also, the EC50 in test [2] is 568 µM.

Turning to `COc1ccc(CCN(C)CCCC(C#N)(c2ccc(OC)c(OC)c2)C(C)C)cc1OC` (centres undefined) [VERAPAMIL], in test [1], the Emax is 61.7%. Also, the 50% effective concentration (EC50) in test [2] worked out at 39 µM.

These data come from ChEMBL document CHEMBL6182891, “Discovery of novel 1,2,3-Triazole hybrids derivatives as vasorelaxant agents: Molecular structure, Hirshfeld surface, in-vivo and in-silico investigation by molecular docking simulation” (Eur J Med Chem, 2025).
